pIC50: −log10 of the molar value.
Target: Protein-arginine deiminase type-4 (Homo sapiens, UniProt Q9UM07)
Test: Inhibition of human PAD4 using BAEE as substrate incubated for 30 mins by spectrophotometric based assay

Protein-arginine deiminase type-4, sequence (Q9UM07 whole entry): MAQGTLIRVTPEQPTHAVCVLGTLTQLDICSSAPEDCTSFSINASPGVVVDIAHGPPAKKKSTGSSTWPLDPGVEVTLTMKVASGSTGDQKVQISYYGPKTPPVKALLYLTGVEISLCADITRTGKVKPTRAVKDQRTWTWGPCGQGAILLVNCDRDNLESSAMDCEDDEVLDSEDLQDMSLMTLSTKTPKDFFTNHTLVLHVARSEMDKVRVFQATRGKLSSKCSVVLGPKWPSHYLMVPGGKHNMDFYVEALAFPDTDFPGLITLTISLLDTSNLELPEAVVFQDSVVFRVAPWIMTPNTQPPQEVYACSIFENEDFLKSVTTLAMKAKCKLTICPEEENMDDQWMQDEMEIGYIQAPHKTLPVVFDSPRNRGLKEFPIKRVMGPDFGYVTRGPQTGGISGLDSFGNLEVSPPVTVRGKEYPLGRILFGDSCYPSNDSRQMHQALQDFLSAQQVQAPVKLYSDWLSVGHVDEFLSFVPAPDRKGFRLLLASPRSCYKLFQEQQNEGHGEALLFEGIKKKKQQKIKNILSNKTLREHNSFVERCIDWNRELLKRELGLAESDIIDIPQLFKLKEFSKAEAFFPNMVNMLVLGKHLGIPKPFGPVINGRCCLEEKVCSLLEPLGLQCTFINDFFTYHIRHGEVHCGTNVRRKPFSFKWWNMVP

Row | Structure (SMILES) | pIC50
1 | [2H]C1([2H])[C@H](N)[C@@H]2CC[C@@H](C2)N1C(=O)c1cc(OC)c2c(c1)nc(-c1cc3ccc4nc3n1CCCCCc1ccccc1C(=O)NC4C)n2C (stereo partly specified) | 8.30
2 | CC1NC(=O)[C@@H]2C[C@@]2(F)CCCC(F)(F)Cn2c(-c3nc4cc(C(=O)N5CCC[C@@H](N)[C@H]5C)cc(F)c4n3C3CC3)cc3ccc1nc32 (stereo partly specified) | 8.30
3 | CC1NC(=O)[C@@H]2CC2CCCC(F)(F)Cn2c(-c3nc4cc(C(=O)N5CCC[C@@H](N)[C@H]5C)cc(Cl)c4n3C3CC3)cc3ccc1nc32 (stereo partly specified) | 8.22
4 | COc1cc(C(=O)N2C[C@H](N)[C@@H]3CC[C@H]2C3)cc2nc(-c3cc4ccc5nc4n3CCCCCC3[C@H](C(=O)NC5C)C3(F)F)n(C)c12 (stereo partly specified) | 8.30
5 | CC1NC(=O)c2cc3sccc3nc2CCCCCn2c(-c3nc4cc(C(=O)N5CCC[C@@H](N)[C@H]5C)cc(F)c4n3C3CC3)cc3ccc1nc32 (stereo partly specified) | 8.30
6 | Cc1ccc2c(n1)CCCCCn1c(-c3nc4cc(C(=O)N5C[C@H](N)[C@@H]6CC[C@H]5C6)cc(F)c4n3C3CC3)cc3ccc(nc31)C(C)NC2=O (stereo partly specified) | 8.22
